For one compound, Ki results are on record in patent US8183388B2, “Androgen receptor modulator and uses thereof” (Eli Lilly and Company, priority 2009, dated 2012).

SMILES strings stand for the structures. Some results are limits rather than exact numbers.

The test deals with T1, human MR (mineralocorticoid receptor) (Homo sapiens, UniProt P08235).
T1 construct: expressed in transfected cells; host or cells: HEK293 (lysate, 293-MR)
T1 sequence (P08235 1-984): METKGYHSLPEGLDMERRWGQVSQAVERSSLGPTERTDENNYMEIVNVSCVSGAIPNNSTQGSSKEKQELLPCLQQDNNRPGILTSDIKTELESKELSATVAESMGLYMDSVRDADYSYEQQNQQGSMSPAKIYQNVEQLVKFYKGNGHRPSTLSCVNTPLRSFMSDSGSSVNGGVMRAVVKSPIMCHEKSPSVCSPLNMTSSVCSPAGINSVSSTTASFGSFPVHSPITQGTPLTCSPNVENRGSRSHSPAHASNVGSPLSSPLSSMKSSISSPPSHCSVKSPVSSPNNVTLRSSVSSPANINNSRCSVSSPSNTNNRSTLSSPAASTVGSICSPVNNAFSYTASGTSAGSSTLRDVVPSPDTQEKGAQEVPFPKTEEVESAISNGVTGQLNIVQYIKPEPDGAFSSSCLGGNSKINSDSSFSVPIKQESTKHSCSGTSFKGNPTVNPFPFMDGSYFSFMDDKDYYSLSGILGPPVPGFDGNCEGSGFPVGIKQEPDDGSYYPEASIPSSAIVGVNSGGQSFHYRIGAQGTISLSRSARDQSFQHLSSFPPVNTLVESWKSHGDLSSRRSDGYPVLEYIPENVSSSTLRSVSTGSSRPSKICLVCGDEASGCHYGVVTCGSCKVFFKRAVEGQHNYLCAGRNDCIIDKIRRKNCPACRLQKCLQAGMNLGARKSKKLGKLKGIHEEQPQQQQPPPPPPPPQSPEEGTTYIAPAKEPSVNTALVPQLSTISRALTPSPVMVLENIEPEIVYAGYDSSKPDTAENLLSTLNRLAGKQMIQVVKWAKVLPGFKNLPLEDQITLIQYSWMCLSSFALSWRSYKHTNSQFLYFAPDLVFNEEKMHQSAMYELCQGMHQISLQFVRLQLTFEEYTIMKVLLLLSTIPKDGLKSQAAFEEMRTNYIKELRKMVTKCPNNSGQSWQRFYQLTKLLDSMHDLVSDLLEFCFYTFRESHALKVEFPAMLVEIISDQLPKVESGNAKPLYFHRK
The test can be described thus: Steroid hormone nuclear receptor binding assay, MR. The settings on record: HEK293 lysate overexpressing human MR, [3H]-aldosterone. The procedure:
Cell lysates from human embryonic kidney HEK293 cells overexpressing human MR (mineralocorticoid receptor), GR (glucocorticoid receptor), AR (androgen receptor), or PR (progesterone receptor) are used for receptor-ligand competition binding assays to determine Ki values. Typical procedures are provided below
Briefly, steroid receptor competition binding assays are run in a buffer containing 20 mM HEPES buffer (pH=7.6), 0.2 mM EDTA, 75 mM NaCl, 1.5 mM MgCl2, 20% glycerol, 20 mM sodium molybdate, 0.2 mM DTT (dithiothreitol), 20 μg/mL aprotinin and 20 μg/mL leupeptin (assay buffer). Typically, steroid receptor binding assays include radio-labeled ligands, such as 0.25 nM [^3H]-aldosterone for MR binding, 0.3 nM [^3H]-dexamethasone for GR binding, 0.36 nM [^3H]-methyltrienolone for AR binding, and 0.29 nM [^3H]-methyltrienolone for PR binding, and either 20 μg 293-MR lysate, 20 μg 293-GR lysate, 22 μg 293-AR lysate, or 40 μg 293-PR lysate per well. Assays are typically run in 96-well format. Competing test compounds are added at various concentrations ranging from about 0.01 nM to 10 μM. Non-specific binding is determined in the presence of 500 nM aldosterone for MR binding, 500 nM dexamethasone for GR binding, or 500 nM methyltrienolone for AR and PR binding. […] After an incubation of 2 hours, plates are read in a Wallac Microbeta counter. […]

As to `CC(C)OC(=O)N[C@H]1Cc2c(n(C[C@H]3OCC[C@@H]3O)c3ccc(C#N)cc23)C1` [compound of Formula (I), [(S)-7-Cyano-4-((2R,3S)-3-hydroxytetrahydrofuran-2-ylmethyl)-1,2,3,4-tetrahydrocyclopenta[b]indol-2-yl]-carbamic acid isopropyl ester], the Ki is more than 4 µM.
